# Patent US20260001928A1 (CORTERIA PHARMACEUTICALS, priority 2022, published 2026)
# *1 amine or outer side, *2 acyl side, *3 side chain or, on linkers, in order; H or OH if unused. Where a SMILES comes first, the peptide text is derived from it. Side-chain parts run from the residue outwards. [ ]: non-standard residue; d: D form. The star is where a group is joined. C18 diacid = O=C(O)CCCCCCCCCCCCCCCCC(=O)*; C16 diacid = O=C(O)CCCCCCCCCCCCCCC(=O)*; γGlu = O=C(O)[C@H](CCC(=O)[*:2])N[*:1]; NMeI = CC[C@H](C)[C@H](NC)C(=O)O; αMeL = CC(C)C[C@](C)(N)C(=O)O; Api = NC1(C(=O)O)CCNCC1; Pentanoyl = CCCCC(=O)*; AEEA = NCCOCCOCC(=O)O; Aib = CC(C)(N)C(=O)O
# Key:
# CFR1R receptor = target: T1, CFR1R receptor (Homo sapiens, UniProt P34998); assay: Activity at anti-target CFR1R receptor, cAMP assay in CRF1R-overexpression CHO-K1 cells; assay type: cell-based; conditions: 100% = Sauvagine at 100 nM; for EC50: cAMP
# T1 construct: host or cells: CHO-K1 (clone 2)
# T1 sequence (P34998 24-415): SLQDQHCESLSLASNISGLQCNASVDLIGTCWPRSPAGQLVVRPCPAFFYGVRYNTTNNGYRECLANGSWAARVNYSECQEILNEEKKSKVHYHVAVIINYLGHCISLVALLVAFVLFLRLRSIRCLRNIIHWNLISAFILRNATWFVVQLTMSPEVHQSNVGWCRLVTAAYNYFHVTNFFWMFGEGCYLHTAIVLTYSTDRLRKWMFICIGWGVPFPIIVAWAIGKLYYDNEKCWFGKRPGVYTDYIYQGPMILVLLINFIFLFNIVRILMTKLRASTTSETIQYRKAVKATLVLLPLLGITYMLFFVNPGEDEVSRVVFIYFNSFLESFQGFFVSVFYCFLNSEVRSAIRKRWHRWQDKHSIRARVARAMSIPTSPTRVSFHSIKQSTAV
# Procedure, shortened: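 Signal is normalised to 100 nM Sauvagine, taken as 100% activation, in clone 2 cells plated at a final 4000 cells/well from frozen stocks.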
# human CRF2a receptor = target: T2, human CRF2a receptor (Homo sapiens, UniProt Q13324); assay: Activity at human CRF2a receptor, cAMP functional assay in TeloHEAC cells; assay type: cell-based; conditions: TeloHEAC cells stably expressing human CRF2a receptor, relative to urocortin 2 (100 nM = 100%)
# T2 construct: expressed in transfected cells; host or cells: TeloHEAC cells
# T2 sequence (Q13324 1-411): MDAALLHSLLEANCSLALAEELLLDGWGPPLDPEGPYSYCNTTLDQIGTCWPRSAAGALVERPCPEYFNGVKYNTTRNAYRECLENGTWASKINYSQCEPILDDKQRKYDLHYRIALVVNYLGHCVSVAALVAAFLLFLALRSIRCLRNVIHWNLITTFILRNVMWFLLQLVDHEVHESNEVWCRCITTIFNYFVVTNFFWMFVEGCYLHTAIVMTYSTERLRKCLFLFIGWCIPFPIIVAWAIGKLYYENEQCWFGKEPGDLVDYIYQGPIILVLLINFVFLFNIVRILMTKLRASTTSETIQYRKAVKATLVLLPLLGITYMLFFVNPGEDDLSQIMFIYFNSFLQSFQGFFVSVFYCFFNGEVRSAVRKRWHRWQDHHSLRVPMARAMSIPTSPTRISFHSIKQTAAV
# Procedure, shortened: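 cAMP accumulation was measured by HTRF 665/620 nm ratio after 30 min at 37° C compound exposure (16 twofold dilutions) of CRF2a-expressing TeloHEAC cells, 10000/well, in HEPES-buffered HBSS plus IBMX. Activity was normalised to urocortin 2 at 100 nM (100%), and EC50 was the concentration giving half-maximal activation.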
compound,measurement,setting,value
CCCCC(=O)N[C@H](C(=O)N[C@@H](CC(C)C)C(=O)N[C@@H](CO)C(=O)N[C@@H](CC(C)C)C(=O)N[C@@H](CC(=O)O)C(=O)N[C@@H](C(=O)N1CCC[C@H]1C(=O)N[C@H](C(=O)N[C@@H](CCCCN)C(=O)N[C@@](C)(CC(C)C)C(=O)N[C@@H](CCCCNC(=O)COCCOCCNC(=O)COCCOCCNC(=O)CC[C@H](NC(=O)CCCCCCCCCCCCCCCCC(=O)O)C(=O)O)C(=O)N[C@@H](CCCCN)C(=O)N[C@H](C(=O)N[C@@H](CC(C)C)C(=O)N[C@@H](CC(C)C)C(=O)N[C@@H](CCC(=O)O)C(=O)N[C@@H](CCC(N)=O)C(=O)N[C@@H](CCC(=O)O)C(=O)N[C@@H](CCCCN)C(=O)N[C@@H](CCC(N)=O)C(=O)N[C@@H](CCCCN)C(=O)N[C@@H](CCCCN)C(=O)N[C@@H](CCC(N)=O)C(=O)N[C@@H](CCCNC(=N)N)C(=O)N[C@@H](CCC(=O)O)C(=O)N[C@@H](CCC(N)=O)C(=O)N[C@@H](C)C(=O)N[C@@H](CCC(=O)O)C(=O)N[C@H](C(=O)N[C@@H](CC(N)=O)C(=O)N[C@H](C(=O)N[C@@H](CCC(N)=O)C(=O)N[C@H](C(=O)N[C@@H](CC(C)C)C(=O)N[C@@H](C)C(=O)N[C@@H](CCC(N)=O)C(=O)N[C@H](C(N)=O)C(C)C)[C@@H](C)CC)C(C)C)[C@@H](C)O)[C@@H](C)CC)[C@@H](C)CC)C(C)C)C(C)C [compound 124] (Pentanoyl-VLSLD[dV]PIK[αMeL]K([AEEA-AEEA-γGlu-C18 diacid])KILLEQEKQKKQREQAETNVQILAQV-NH2),Emax (% I),CFR1R receptor,14 % I
same,EC50,CFR1R receptor,> 250 nM
same,EC50,human CRF2a receptor,0.38 nM
CC[C@H](C)[C@H](NC(C)=O)C(=O)N[C@H](C(=O)N[C@@H](CC(C)C)C(=O)N[C@@H](CO)C(=O)N[C@@H](CC(C)C)C(=O)N[C@@H](CC(=O)O)C(=O)N[C@@H](C(=O)N1CCC[C@H]1C(=O)N[C@H](C(=O)N[C@@H](CCCCN)C(=O)N[C@@](C)(CC(C)C)C(=O)N[C@@H](CCCCNC(=O)COCCOCCNC(=O)COCCOCCNC(=O)CC[C@H](NC(=O)CCCCCCCCCCCCCCCCC(=O)O)C(=O)O)C(=O)N[C@@H](CCCCN)C(=O)N[C@H](C(=O)N[C@@H](CC(C)C)C(=O)N[C@@H](CC(C)C)C(=O)N[C@@H](CCC(=O)O)C(=O)N[C@@H](CCC(N)=O)C(=O)N[C@@H](CCC(=O)O)C(=O)N[C@@H](CCCCN)C(=O)N[C@@H](CCC(N)=O)C(=O)N[C@@H](CCCCN)C(=O)N[C@@H](CCCCN)C(=O)N[C@@H](CCC(N)=O)C(=O)N[C@@H](CCCNC(=N)N)C(=O)N[C@@H](CCC(=O)O)C(=O)N[C@@H](CCC(N)=O)C(=O)N[C@@H](C)C(=O)N[C@@H](CCC(=O)O)C(=O)N[C@H](C(=O)N[C@@H](CC(N)=O)C(=O)N[C@H](C(=O)N[C@@H](CCC(N)=O)C(=O)N[C@H](C(=O)N[C@@H](CC(C)C)C(=O)N[C@@H](C)C(=O)N[C@@H](CCC(N)=O)C(=O)N[C@H](C(N)=O)C(C)C)[C@@H](C)CC)C(C)C)[C@@H](C)O)[C@@H](C)CC)[C@@H](C)CC)C(C)C)C(C)C [compound 111] (Ac-IVLSLD[dV]PIK[αMeL]K([AEEA-AEEA-γGlu-C18 diacid])KILLEQEKQKKQREQAETNVQILAQV-NH2),Emax (% I),CFR1R receptor,−3 % I
same,EC50,CFR1R receptor,> 250 nM
same,EC50,human CRF2a receptor,2.58 nM
CC[C@H](C)[C@H](NC)C(=O)N[C@H](C(=O)N[C@@H](CC(C)C)C(=O)N[C@@H](CO)C(=O)N[C@@H](CC(C)C)C(=O)N[C@@H](CC(=O)O)C(=O)N[C@@H](C(=O)N1CCC[C@H]1C(=O)N[C@H](C(=O)N[C@@H](CCCCN)C(=O)N[C@@H](CC(C)C)C(=O)N[C@@H](CCCCNC(=O)CC[C@H](NC(=O)CCCCCCCCCCCCCCC(=O)O)C(=O)O)C(=O)N[C@@H](CCCCN)C(=O)N[C@H](C(=O)N[C@@H](CC(C)C)C(=O)N[C@@H](CC(C)C)C(=O)N[C@@H](CCC(=O)O)C(=O)N[C@@H](CCC(N)=O)C(=O)N[C@@H](CCC(=O)O)C(=O)N[C@@H](CCCCN)C(=O)N[C@@H](CCC(N)=O)C(=O)N[C@@H](CCCCN)C(=O)N[C@@H](CCCCN)C(=O)N[C@@H](CCC(N)=O)C(=O)N[C@@H](CCCNC(=N)N)C(=O)N[C@@H](CCC(=O)O)C(=O)N[C@@H](CCC(N)=O)C(=O)N[C@@H](C)C(=O)N[C@@H](CCC(=O)O)C(=O)N[C@H](C(=O)N[C@@H](CC(N)=O)C(=O)N[C@@H](CCC(=O)O)C(=O)N[C@@H](CCC(N)=O)C(=O)N[C@H](C(=O)N[C@@H](CC(C)C)C(=O)N[C@@H](C)C(=O)N[C@@H](CCC(N)=O)C(=O)N[C@H](C(N)=O)C(C)C)[C@@H](C)CC)[C@@H](C)O)[C@@H](C)CC)[C@@H](C)CC)C(C)C)C(C)C [compound 71] (H-[NMeI]VLSLD[dV]PIKLK([γGlu-C16 diacid])KILLEQEKQKKQREQAETNEQILAQV-NH2),Emax (% I),CFR1R receptor,−4 % I
same,EC50,CFR1R receptor,> 250 nM
same,EC50,human CRF2a receptor,0.21 nM
CC[C@H](C)[C@H](NC(C)=O)C(=O)N[C@H](C(=O)N[C@@H](CC(C)C)C(=O)N[C@@H](CO)C(=O)N[C@@H](CC(C)C)C(=O)N[C@@H](CC(=O)O)C(=O)N[C@@H](C(=O)N1CCC[C@H]1C(=O)N[C@H](C(=O)N[C@@H](CCCCN)C(=O)N[C@@H](CC(C)C)C(=O)N[C@@H](CCCCNC(=O)COCCOCCNC(=O)COCCOCCNC(=O)CC[C@H](NC(=O)CCCCCCCCCCCCCCCCC(=O)O)C(=O)O)C(=O)N[C@@H](CCCCN)C(=O)N[C@H](C(=O)N[C@@H](CC(C)C)C(=O)N[C@@H](CC(C)C)C(=O)N[C@@H](CCC(=O)O)C(=O)N[C@@H](CCC(N)=O)C(=O)N[C@@H](CCC(=O)O)C(=O)N[C@@H](CCCCN)C(=O)N[C@@H](CCC(N)=O)C(=O)N[C@@H](CCCCN)C(=O)N[C@@H](CCCCN)C(=O)N[C@@H](CCC(N)=O)C(=O)N[C@@H](CCCNC(=N)N)C(=O)N[C@@H](CCC(=O)O)C(=O)N[C@@H](CCC(N)=O)C(=O)N[C@@H](C)C(=O)N[C@@H](CCC(=O)O)C(=O)N[C@H](C(=O)N[C@@H](CC(N)=O)C(=O)NC1(C(=O)N[C@@H](CCC(N)=O)C(=O)N[C@H](C(=O)N[C@@H](CC(C)C)C(=O)N[C@@H](C)C(=O)N[C@@H](CCC(N)=O)C(=O)N[C@H](C(N)=O)C(C)C)[C@@H](C)CC)CCNCC1)[C@@H](C)O)[C@@H](C)CC)[C@@H](C)CC)C(C)C)C(C)C [compound 109] (Ac-IVLSLD[dV]PIKLK([AEEA-AEEA-γGlu-C18 diacid])KILLEQEKQKKQREQAETN[Api]QILAQV-NH2),Emax (% I),CFR1R receptor,4 % I
same,EC50,CFR1R receptor,> 250 nM
same,EC50,human CRF2a receptor,1 nM
CC[C@H](C)[C@H](NC(C)=O)C(=O)N[C@H](C(=O)N[C@@H](CC(C)C)C(=O)N[C@@H](CO)C(=O)N[C@@H](CC(C)C)C(=O)N[C@@H](CC(=O)O)C(=O)N[C@@H](C(=O)N1CCC[C@H]1C(=O)N[C@H](C(=O)N[C@@H](C)C(=O)N[C@@H](CC(C)C)C(=O)N[C@@H](CCCCNC(=O)CC[C@H](NC(=O)CCCCCCCCCCCCCCC(=O)O)C(=O)O)C(=O)N[C@@H](CCCCN)C(=O)N[C@H](C(=O)N[C@@H](CC(C)C)C(=O)N[C@@H](CC(C)C)C(=O)N[C@@H](CCC(=O)O)C(=O)N[C@@H](CCC(N)=O)C(=O)N[C@@H](CCC(=O)O)C(=O)N[C@@H](CCCCN)C(=O)N[C@@H](CCC(N)=O)C(=O)N[C@@H](CCCCN)C(=O)N[C@@H](CCCCN)C(=O)N[C@@H](CCC(N)=O)C(=O)N[C@@H](CCCNC(=N)N)C(=O)N[C@@H](CCC(=O)O)C(=O)N[C@@H](CCC(N)=O)C(=O)N[C@@H](C)C(=O)N[C@@H](CCC(=O)O)C(=O)N[C@H](C(=O)N[C@@H](CC(N)=O)C(=O)NC(C)(C)C(=O)N[C@@H](CCC(N)=O)C(=O)N[C@H](C(=O)N[C@@H](CC(C)C)C(=O)N[C@@H](C)C(=O)N[C@@H](CCC(N)=O)C(=O)N[C@H](C(N)=O)C(C)C)[C@@H](C)CC)[C@@H](C)O)[C@@H](C)CC)[C@@H](C)CC)C(C)C)C(C)C [compound 163] (Ac-IVLSLD[dV]PIALK([γGlu-C16 diacid])KILLEQEKQKKQREQAETN[Aib]QILAQV-NH2),Emax (% I),CFR1R receptor,53 % I
same,EC50,human CRF2a receptor,0.3 nM
